The series concerns CCRIS mutagenicity, Ames/micronucleus/aberration tests. In words: CCRIS mutagenicity studies.
[1] abbreviates: Test System: AMES SALMONELLA TYPHIMURIUM, Strain/Indicator: TA98, Metabolic Activation: NONE, Method: PREINCUBATION
The mark [2] stands for this setting: Test System: AMES SALMONELLA TYPHIMURIUM, Strain/Indicator: TA100, Metabolic Activation: NONE, Method: STANDARD PLATE.

The structures appear in SMILES notation. Activity calls are given as the source filed them. How the calls were made is not given here.

For `CC(Br)Br`, the mutagenic call is, setting by setting: (Test System: AMES SALMONELLA TYPHIMURIUM, Strain/Indicator: TA102, Metabolic Activation: NONE, Method: STANDARD PLATE) “inactive; negative”; (Test System: AMES SALMONELLA TYPHIMURIUM, Strain/Indicator: TA2638, Metabolic Activation: NONE, Method: STANDARD PLATE) “inactive; negative”; (Test System: E. COLI, Strain/Indicator: WP2 (PKM101), Metabolic Activation: NONE, Method: STANDARD PLATE) “inactive; negative”; (Test System: E. COLI, Strain/Indicator: WP2 UVRA (PKM101), Metabolic Activation: NONE, Method: STANDARD PLATE) “inactive; negative”.
On to `COc1nncc2ccccc12`, for which the mutagenic call runs as follows: under setting [1], “inactive; negative”; (Test System: AMES SALMONELLA TYPHIMURIUM, Strain/Indicator: TA98, Metabolic Activation: RAT, LIVER, S-9, PCB, Method: PREINCUBATION) “inactive; negative”; (Test System: AMES SALMONELLA TYPHIMURIUM, Strain/Indicator: TA100, Metabolic Activation: NONE, Method: PREINCUBATION) “inactive; negative”; (Test System: AMES SALMONELLA TYPHIMURIUM, Strain/Indicator: TA100, Metabolic Activation: RAT, LIVER, S-9, PCB, Method: PREINCUBATION) “inactive; negative”.
Take `NNCCO`: the mutagenic call is, setting by setting: (Test System: E. COLI, Strain/Indicator: WP2, Metabolic Activation: NONE, Method: STANDARD PLATE) “active; positive”; (Test System: E. COLI, Strain/Indicator: WP2, Metabolic Activation: RAT, LIVER, Method: STANDARD PLATE) “active; positive”; (Test System: E. COLI, Strain/Indicator: WP2HCR, Metabolic Activation: NONE, Method: STANDARD PLATE) “active; positive”; (Test System: E. COLI, Strain/Indicator: WP2HCR, Metabolic Activation: S-9 MIX, Method: STANDARD PLATE) “active; positive”; (Test System: E. COLI, Strain/Indicator: WP2 UVRA, Metabolic Activation: NONE, Method: STANDARD PLATE) “active; positive”.
Take `O=C(OCCBr)C(=O)OCCBr`: the mutagenic call reads like this: under setting [2], “active; positive”; (Test System: AMES SALMONELLA TYPHIMURIUM, Strain/Indicator: TA100, Metabolic Activation: RAT, LIVER, S-9, AROCLOR 1254, Method: STANDARD PLATE) “active; positive”.
With `Nc1ccc(N=Nc2ccc(N=Nc3c(S(=O)(=O)O)cc4c(c3N)C(=O)/C(=N\Nc3ccc(N=Nc5ccc(N)cc5N)cc3)C(S(=O)(=O)O)=C4)cc2)c(N)c1`, the mutagenic call is, setting by setting: (Test System: AMES SALMONELLA TYPHIMURIUM, Strain/Indicator: TA1538, Metabolic Activation: NONE, Method: STANDARD PLATE) “inactive; negative”; (Test System: AMES SALMONELLA TYPHIMURIUM, Strain/Indicator: TA1538, Metabolic Activation: RAT, LIVER, S-9, AROCLOR 1254, Method: STANDARD PLATE) “active; positive”.
In the case of `N=C(N)c1ccccc1`, the mutagenic call is, setting by setting: (Test System: AMES SALMONELLA TYPHIMURIUM, Strain/Indicator: TA98, Metabolic Activation: CO631 CELLS, Method: PREINCUBATION) “inactive; negative”; under setting [1], “inactive; negative”; (Test System: AMES SALMONELLA TYPHIMURIUM, Strain/Indicator: TA98, Metabolic Activation: RABBIT, LIVER, S-9, Method: PREINCUBATION) “inactive; negative”; (Test System: AMES SALMONELLA TYPHIMURIUM, Strain/Indicator: TA98, Metabolic Activation: RAT HEPATOCYTES, Method: PREINCUBATION) “inactive; negative”; (Test System: AMES SALMONELLA TYPHIMURIUM, Strain/Indicator: TA98, Metabolic Activation: RAT, LIVER, S-9, AROCLOR 1254, ATP, Method: PREINCUBATION) “inactive; negative”; (Test System: AMES SALMONELLA TYPHIMURIUM, Strain/Indicator: TA98, Metabolic Activation: RAT, LIVER, S-9, AROCLOR 1254, Method: PREINCUBATION) “inactive; negative”. For the same molecule, the mutagenic call is, setting by setting: (Test System: AMES SALMONELLA TYPHIMURIUM, Strain/Indicator: TA100, Metabolic Activation: RABBIT, LIVER, S-9, Method: PREINCUBATION) “inactive; negative”; (Test System: AMES SALMONELLA TYPHIMURIUM, Strain/Indicator: TA100, Metabolic Activation: RAT HEPATOCYTES, Method: PREINCUBATION) “inactive; negative”; (Test System: AMES SALMONELLA TYPHIMURIUM, Strain/Indicator: TA100, Metabolic Activation: RAT, LIVER, S-9, AROCLOR 1254, ATP, Method: PREINCUBATION) “inactive; negative”; (Test System: AMES SALMONELLA TYPHIMURIUM, Strain/Indicator: TA100, Metabolic Activation: RAT, LIVER, S-9, AROCLOR 1254, Method: PREINCUBATION) “inactive; negative”.
Regarding `CCOC(=O)CNC(=O)CBr`, the mutagenic call is, setting by setting: (Test System: AMES SALMONELLA TYPHIMURIUM, Strain/Indicator: TA100, Metabolic Activation: MOUSE, LIVER, S-9, AROCLOR 1254, Method: STANDARD PLATE) “inactive; negative”; under setting [2], “inactive; negative”.

These data come from PubChem BioAssay AID1259407 (Chemical Carcinogenesis Research Information System (CCRIS), 2018).
